Here are results for 2 compounds from PMC2099433, “The binding site for neohesperidin dihydrochalcone at the human sweet taste receptor” (BMC Structural Biology, 2007).

Positions count from the first letter of the chain named. Where a SMILES comes first, the peptide text is derived from it.

The target of experiment [1] is T1, hTAS1R2 + hTAS1R3 L798I^7.36 (Homo sapiens, UniProt Q7RTX0+Q8TE23, L798I).
T1 construct: expressed in transfected cells; host or cells: HEK293T cells stably expressing G16Gust44
T1 sequence (Q8TE23 20-839): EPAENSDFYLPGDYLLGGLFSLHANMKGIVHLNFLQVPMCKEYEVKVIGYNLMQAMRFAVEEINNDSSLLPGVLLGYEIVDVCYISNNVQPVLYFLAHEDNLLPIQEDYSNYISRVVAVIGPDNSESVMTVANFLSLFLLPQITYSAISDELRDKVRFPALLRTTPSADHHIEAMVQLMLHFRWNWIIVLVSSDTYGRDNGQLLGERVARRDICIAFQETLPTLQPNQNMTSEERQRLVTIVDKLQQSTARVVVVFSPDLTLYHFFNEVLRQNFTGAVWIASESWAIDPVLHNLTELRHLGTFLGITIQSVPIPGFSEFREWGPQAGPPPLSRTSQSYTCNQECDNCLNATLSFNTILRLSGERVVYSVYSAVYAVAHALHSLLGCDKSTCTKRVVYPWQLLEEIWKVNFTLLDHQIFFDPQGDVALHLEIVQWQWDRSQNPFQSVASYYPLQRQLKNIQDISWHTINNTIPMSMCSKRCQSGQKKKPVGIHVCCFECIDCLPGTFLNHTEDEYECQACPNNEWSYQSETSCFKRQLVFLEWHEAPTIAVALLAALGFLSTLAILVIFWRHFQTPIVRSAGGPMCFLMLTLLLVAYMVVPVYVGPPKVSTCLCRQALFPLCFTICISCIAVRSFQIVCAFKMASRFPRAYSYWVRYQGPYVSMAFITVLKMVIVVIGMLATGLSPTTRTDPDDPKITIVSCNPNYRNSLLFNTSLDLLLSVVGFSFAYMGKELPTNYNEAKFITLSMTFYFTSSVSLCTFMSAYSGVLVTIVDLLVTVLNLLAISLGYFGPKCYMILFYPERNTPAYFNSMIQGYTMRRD
T1 sequence (Q7RTX0 21-852 L798I): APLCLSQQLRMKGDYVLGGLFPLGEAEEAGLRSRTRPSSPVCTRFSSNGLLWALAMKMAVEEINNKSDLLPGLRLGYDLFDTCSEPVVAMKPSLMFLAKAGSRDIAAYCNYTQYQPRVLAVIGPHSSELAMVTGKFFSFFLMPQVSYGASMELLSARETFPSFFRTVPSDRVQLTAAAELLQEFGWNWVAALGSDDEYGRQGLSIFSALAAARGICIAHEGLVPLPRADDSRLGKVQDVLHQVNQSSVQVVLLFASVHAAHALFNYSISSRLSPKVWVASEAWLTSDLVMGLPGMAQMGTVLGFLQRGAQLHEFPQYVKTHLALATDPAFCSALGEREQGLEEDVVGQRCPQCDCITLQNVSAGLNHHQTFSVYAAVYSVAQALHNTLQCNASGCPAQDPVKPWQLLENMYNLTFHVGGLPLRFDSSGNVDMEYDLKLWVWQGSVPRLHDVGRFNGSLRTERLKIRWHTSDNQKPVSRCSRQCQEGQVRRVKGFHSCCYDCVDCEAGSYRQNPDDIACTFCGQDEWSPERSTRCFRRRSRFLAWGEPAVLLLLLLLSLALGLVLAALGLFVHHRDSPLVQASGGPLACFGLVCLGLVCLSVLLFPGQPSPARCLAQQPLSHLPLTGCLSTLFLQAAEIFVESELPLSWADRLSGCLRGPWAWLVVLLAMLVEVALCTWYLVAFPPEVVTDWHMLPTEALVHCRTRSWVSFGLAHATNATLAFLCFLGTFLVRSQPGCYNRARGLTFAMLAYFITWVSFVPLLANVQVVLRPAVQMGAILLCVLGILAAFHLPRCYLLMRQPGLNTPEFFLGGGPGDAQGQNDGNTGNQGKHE
The experiment can be described thus: Calcium response (FLIPR), hTAS1R3 mutant coexpressed with hTAS1R2. Conditions: variant L798I^7.36; for Emax: read-out: maximal signal (% of wt). It is filed as cell-based. The procedure, abridged: (§1)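 Each mutant receptor pair was expressed transiently in G16Gust44-expressing HEK293T cells; stimuli dissolved in C1 solution triggered calcium responses, recorded by fluorometric imaging and scaled to baseline fluorescence (ΔF/F) after mock correction, from at least three experiments run in duplicate.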

For experiment [2], the target named is T2, hTAS1R2 + hTAS1R3 S729A^5.42 (Homo sapiens, UniProt Q7RTX0+Q8TE23, S729A).
T2 construct: expressed in transfected cells; host or cells: HEK293T cells stably expressing G16Gust44
T2 sequence (Q8TE23 20-839): T1 sequence (Q8TE23 20-839)
T2 sequence (Q7RTX0 21-852 S729A): T1 sequence (Q7RTX0 21-852 L798I) with S709A, I778L
Described as above. It is filed as cell-based. The conditions noted are these: variant S729A^5.42; for Emax: read-out: maximal signal (% of wt). An outline of the steps: as §1

For orientation: EC50 means the midpoint of the concentration-response curve. Regarding `COc1ccc(CCC(=O)c2c(O)cc(O[C@@H]3O[C@H](CO)[C@@H](O)[C@H](O)[C@H]3O[C@@H]3O[C@@H](C)[C@H](O)[C@@H](O)[C@H]3O)cc2O)cc1O` [NHDC, neohesperidin dihydrochalcone], in experiment [1], the EC50 is 200 ± 200 µM and the Emax came to 66 ± 26%. Also, in experiment [2], the EC50 worked out at 200 ± 100 µM and the Emax is 80 ± 16%.
For `COC(=O)[C@H](Cc1ccccc1)NC(=O)[C@@H](N)CC(=O)O` [aspartame] (HELM PEPTIDE1{D.F.[CO[*:1]]}$$$$V2.0), in that order: 900 ± 400 µM, 81 ± 5%, 900 ± 400 µM and 72 ± 20%.
